Experimental data: patent US8653109B2, “Substituted bipyridine derivatives and their use as adenosine receptor ligands” (Bayer Intellectual Property GmbH, priority 2006, dated 2014)

How the values were obtained:
Format in all cases: cell-based
adenosine A2b receptor = biological target: T1, adenosine A2b receptor (Homo sapiens, UniProt P29275); assay: Indirect determination of adenosine agonism by way of gene expression (cAMP-dependent luciferase), A2b cells; details: CHO cells stably transfected with A2b receptor cDNA; 50% of the maximum stimulation of luciferase
T1 construct: expressed in transfected cells; host or cells: CHO (Chinese Hamster Ovary)
T1 sequence (P29275 1-332): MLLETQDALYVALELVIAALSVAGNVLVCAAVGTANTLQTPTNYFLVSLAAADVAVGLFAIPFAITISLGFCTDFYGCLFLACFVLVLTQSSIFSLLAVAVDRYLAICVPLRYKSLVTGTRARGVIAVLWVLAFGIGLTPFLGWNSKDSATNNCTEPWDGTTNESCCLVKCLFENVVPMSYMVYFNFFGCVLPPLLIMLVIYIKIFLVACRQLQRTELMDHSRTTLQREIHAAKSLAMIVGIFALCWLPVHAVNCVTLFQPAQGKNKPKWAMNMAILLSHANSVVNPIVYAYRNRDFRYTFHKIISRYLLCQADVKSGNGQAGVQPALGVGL
Text: (§1) B-1. Indirect Determination of the Adenosine Agonism by Way of Gene Expression
(§2) Cells of the CHO (Chinese Hamster Ovary) permanent cell line are transfected stably with the cDNA for the adenosine receptor subtypes A1, A2a and A2b. The adenosine A1 receptors are coupled to the adenylate cyclase by way of Gi proteins, while the adenosine A2a and A2b receptors are coupled by way of Gs proteins. In correspondence with this, the formation of cAMP in the cell is inhibited or stimulated, respectively. After that, expression of the luciferase is modulated by way of a cAMP-dependent promoter. The luciferase test is optimized, with the aim of high sensitivity and reproducibility, low variance and good suitability for implementation on a robot system, by varying several test parameters, such as cell density, duration of the growth phase and the test incubation, forskolin concentration and medium composition. The following test protocol is used for pharmacologically characterizing cells and for the robot-assisted substance screening:
(§3) The stock cultures are grown, at 37° C. and under 5% CO2, in DMEM/F12 medium containing 10% FCS (foetal calf serum) and in each case split 1:10 after 2-3 days. The test cultures are seeded in 384-well plates with 2000 cells per well and grown at 37° C. for approx. 48 hours. The medium is then replaced with a physiological sodium chloride solution (130 mM sodium chloride, 5 mM potassium chloride, 2 mM calcium chloride, 20 mM HEPES, 1 mM magnesium chloride hexahydrate, 5 mM sodium bicarbonate, pH 7.4). The substances to be tested, which are dissolved in DMSO, are pipetted into the test cultures (maximum final concentration of DMSO in the test mixture: 0.5%) in a dilution series of from 5×10^−11M to 3×10^−6M (final concentration). 10 minutes later, forskolin is added to the A1 cells and all the cultures are subsequently incubated at 37° C. for four hours. After that, 35 μl of a solution which is composed of 50% lysis reagent (30 mM disodium hydrogenphosphate, 10% glycerol, 3% TritonX100, 25 mM TrisHCl, 2 mM dithiotreitol (DTT), pH 7.8) and 50% luciferase substrate solution (2.5 mM ATP, 0.5 mM luciferin, 0.1 mM coenzyme A, 10 mM tricine, 1.35 mM magnesium sulphate, 15 mM DTT, pH 7.8) are added to the test cultures, which are shaken for approx. 1 minute and the luciferase activity is measured using a camera system. The EC50 values are determined, i.e., the concentrations at which 50% of the luciferase answer is inhibited in the case of the A1 cell, and, respectively, 50% of the maximum stimulation with the corresponding substance is achieved in the case of the A2b and A2a cells. […] Pharmacol., 357 (1998), 1-9).

adenosine A2a receptor = biological target: T2, adenosine A2a receptor (Homo sapiens, UniProt P29274); assay: Indirect determination of adenosine agonism by way of gene expression (cAMP-dependent luciferase), A2a cells; details: CHO cells stably transfected with A2a receptor cDNA; 50% of the maximum stimulation of luciferase
T2 construct: expressed in transfected cells; host or cells: CHO (Chinese Hamster Ovary)
Text: as §1, §2, §3

adenosine A1 receptor = biological target: T3, adenosine A1 receptor (Homo sapiens, UniProt P30542); assay: Indirect determination of adenosine agonism by way of gene expression (cAMP-dependent luciferase), A1 cells; details: CHO cells stably transfected with A1 receptor cDNA; 1 μM forskolin; concentration at which 50% of the luciferase answer is inhibited
T3 construct: expressed in transfected cells; host or cells: CHO (Chinese Hamster Ovary)
T3 sequence (P30542 1-326): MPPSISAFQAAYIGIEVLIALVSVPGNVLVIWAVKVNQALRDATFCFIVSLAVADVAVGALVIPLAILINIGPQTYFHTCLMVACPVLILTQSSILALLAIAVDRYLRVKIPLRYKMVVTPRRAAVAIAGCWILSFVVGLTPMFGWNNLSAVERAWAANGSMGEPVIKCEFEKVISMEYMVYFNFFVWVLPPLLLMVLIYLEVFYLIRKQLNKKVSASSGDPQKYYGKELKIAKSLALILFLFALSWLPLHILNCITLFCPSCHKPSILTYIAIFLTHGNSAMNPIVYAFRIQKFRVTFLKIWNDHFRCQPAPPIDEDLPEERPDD
Text: as §1, §2, §3

T2 sequence (P29274 whole entry): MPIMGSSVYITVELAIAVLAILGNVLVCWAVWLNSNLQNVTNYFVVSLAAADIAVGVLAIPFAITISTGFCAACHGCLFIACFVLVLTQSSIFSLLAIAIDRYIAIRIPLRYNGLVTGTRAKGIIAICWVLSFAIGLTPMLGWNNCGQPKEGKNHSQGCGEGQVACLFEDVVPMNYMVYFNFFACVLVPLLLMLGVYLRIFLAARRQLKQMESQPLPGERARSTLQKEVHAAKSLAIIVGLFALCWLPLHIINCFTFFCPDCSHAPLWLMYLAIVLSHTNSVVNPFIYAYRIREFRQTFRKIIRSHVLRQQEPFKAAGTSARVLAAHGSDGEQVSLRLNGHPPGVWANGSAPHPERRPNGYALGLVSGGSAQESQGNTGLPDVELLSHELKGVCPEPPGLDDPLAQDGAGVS

With N#Cc1c(N)nc(SCc2coc(-c3ccc(Cl)cc3)n2)c(C#N)c1-c1ccc(OCCO)nc1 [Example 31] the EC50 (adenosine A2b receptor) was 235 nM, the EC50 (adenosine A2a receptor) was 101 nM and the EC50 (adenosine A1 receptor) was 0.09 nM.

For Cc1cc(CSc2nc(N)c(C#N)c(-c3ccc(OCCO)nc3)c2C#N)nc(Nc2ccc(F)cc2)n1 [Example 21], the EC50 (adenosine A2b receptor) was greater than 3000 nM, the EC50 (adenosine A2a receptor) was greater than 3000 nM and the EC50 (adenosine A1 receptor) was 3.6 nM.

N#Cc1c(N)nc(SCc2coc(-c3ccc(Cl)cc3)n2)c(C#N)c1-c1ccc(OC[C@@H](O)CO)nc1 [Example 42, 2′-Amino-6′-({[2-(4-chlorophenyl)-1,3-oxazol-4-yl]methyl}thio)-6-{[(2S)-2,3-dihydroxypropyl]-oxy}-3,4′-bipyridine-3′,5′-dicarbonitrile] gave an EC50 (adenosine A2b receptor) of 516 nM, an EC50 (adenosine A2a receptor) of 355 nM and an EC50 (adenosine A1 receptor) of 0.09 nM.

Molecule N#Cc1c(NCCO)nc(SCc2csc(-c3ccc(Cl)cc3)n2)c(C#N)c1-c1ccc(OCCO)nc1 [Example 46] has an EC50 (adenosine A2b receptor) of 166 nM, an EC50 (adenosine A2a receptor) of 266 nM and an EC50 (adenosine A1 receptor) of 0.04 nM.

In the case of Cc1oc(-c2ccc(Cl)cc2)nc1CSc1nc(N)c(C#N)c(-c2ccc(OCCO)nc2)c1C#N [Example 37], the EC50 (adenosine A2b receptor) is reported as 1260 nM, the EC50 (adenosine A2a receptor) is reported as 1750 nM and the EC50 (adenosine A1 receptor) is reported as 0.3 nM.

In the case of N#Cc1c(SCc2csc(-c3ccc(Cl)cc3)n2)nc(N2CCCC2)c(C#N)c1-c1ccc(OCCO)nc1 [Example 44, 2′-({[2-(4-Chlorophenyl)-1,3-thiazol-4-yl]methyl}thio)-6-(2-hydroxyethoxy)-6′-pyrrolidin-1-yl-3,4′-bipyridine-3′,5′-dicarbonitrile], the EC50 (adenosine A2b receptor) is reported as 95 nM, the EC50 (adenosine A2a receptor) is reported as 547 nM and the EC50 (adenosine A1 receptor) is reported as 0.08 nM.

N#Cc1c(N)nc(SCc2csc(Nc3cccc(F)c3)n2)c(C#N)c1-c1ccc(OCCO)nc1 [Example 5] showed an EC50 (adenosine A2b receptor) of 8.5 nM, an EC50 (adenosine A2a receptor) of 190 nM and an EC50 (adenosine A1 receptor) of 0.6 nM.

N#Cc1c(N)nc(SCc2ncon2)c(C#N)c1-c1ccc(OCCO)nc1 [Example 25] gave an EC50 (adenosine A2b receptor) greater than 3000 nM, an EC50 (adenosine A2a receptor) greater than 3000 nM and an EC50 (adenosine A1 receptor) of 4.1 nM.

Work on N#Cc1c(N)nc(SCc2csc(Nc3ccc(F)c(Cl)c3)n2)c(C#N)c1-c1ccc(OCCO)nc1 [Example 1, 2′-Amino-6′-[({2-[(3-chloro-4-fluorophenyl)amino]-1,3-thiazol-4-yl}methyl)thio]-6-(2-hydroxyethoxy)-3,4′-bipyridine-3′,5′-dicarbonitrile] yielded an EC50 (adenosine A2b receptor) of 5.8 nM, an EC50 (adenosine A2a receptor) of 2180 nM and an EC50 (adenosine A1 receptor) of 0.8 nM.

In the case of N#Cc1c(N)nc(SCc2cscn2)c(C#N)c1-c1ccc(OCCO)nc1 [Example 13], the EC50 (adenosine A2b receptor) is reported as 5.5 nM, the EC50 (adenosine A2a receptor) is reported as 21 nM and the EC50 (adenosine A1 receptor) is reported as 0.09 nM.

N#Cc1c(N)nc(SCc2csc(Nc3ccc(F)c(F)c3)n2)c(C#N)c1-c1ccc(OCCO)nc1 [Example 11] showed an EC50 (adenosine A2b receptor) of 5.7 nM, an EC50 (adenosine A2a receptor) of 150 nM and an EC50 (adenosine A1 receptor) of 0.4 nM.

Molecule N#Cc1c(N)nc(SCc2cccc(Nc3ccncc3)n2)c(C#N)c1-c1ccc(OCCO)nc1 [Example 22] has an EC50 (adenosine A2b receptor) of 117 nM, an EC50 (adenosine A2a receptor) of 120 nM and an EC50 (adenosine A1 receptor) of 0.6 nM.

Molecule N#Cc1c(N)nc(SCc2csc(-c3ccc(Cl)cc3)n2)c(C#N)c1-c1ccc(OCCO)nc1 [Example 19, 2′-Amino-6′-({[2-(4-chlorophenyl)-1,3-thiazol-4-yl]methyl}thio)-6-(2-hydroxyethoxy)-3,4′-bipyridine-3′,5′-dicarbonitrile] has an EC50 (adenosine A2b receptor) of 234 nM, an EC50 (adenosine A2a receptor) of 663 nM and an EC50 (adenosine A1 receptor) of 0.04 nM.

Work on N#Cc1c(N)nc(SCc2coc(-c3ccc(Cl)cc3)n2)c(C#N)c1-c1ccc(OC[C@H](O)CO)nc1 [Example 43, 2′-Amino-6′-({[2-(4-chlorophenyl)-1,3-oxazol-4-yl]methyl}thio)-6-{[(2R)-2,3-dihydroxypropyl]-oxy}-3,4′-bipyridine-3′,5′-dicarbonitrile] yielded an EC50 (adenosine A2b receptor) of 185 nM, an EC50 (adenosine A2a receptor) of 72 nM and an EC50 (adenosine A1 receptor) of 0.04 nM.

N#Cc1c(N)nc(SCc2csc(Nc3ccc(F)cc3)n2)c(C#N)c1-c1ccc(OCCO)nc1 [Example 3] showed an EC50 (adenosine A2b receptor) of 3.7 nM, an EC50 (adenosine A2a receptor) of 123 nM and an EC50 (adenosine A1 receptor) of 0.2 nM.
